Results published in patent US5459141A, “Compounds 31668P and 31668U, a process for their production and their use” (Hoechst Aktiengesellschaft, priority 1992, dated 1995).
“Also recorded” adds a separate entry of the source. Read-outs that look alike come from different tables or passages of the source.

Key:
[1] = test system: E. coli 078; assay: Minimal inhibitory concentration, broth-dilution test; assay type: cell-based; conditions: Escherichia coli
Excerpt: (§1) The antibacterial activity of 31668P and 31668U as Minimum Inhibitory Concentration values required to inhibit the growth of various bacteria are shown in Table 1.
(§2) Minimal inhibitory concentrations of the anitbiotics 31668P and
(§3) 31668U determined by the broth-dilution tests against selected
(§4) strains of bacteria (microgram per ml)

[2] = test system: Pseud. aeruginosa 1771 M; assay: as above; assay type: cell-based; conditions: Pseudomonas aeruginosa
Excerpt: as §1, §2, §3, §4

[3] = test system: Pseud. aeruginosa 1592 E; assay: as above; assay type: cell-based; conditions: Pseudomonas aeruginosa
Excerpt: as §1, §2, §3, §4

[4] = test system: Enterobact. cloacae 1321 E; assay: as above; assay type: cell-based
Excerpt: as §1, §2, §3, §4

[5] = test system: Pseud. aeruginosa ATCC 9027; assay: as above; assay type: cell-based; conditions: Pseudomonas aeruginosa, ATCC9027
Excerpt: as §1, §2, §3, §4

[6] = test system: Strept. pyogenes 308 A; assay: as above; assay type: cell-based; conditions: Streptococcus pyogenes
Excerpt: as §1, §2, §3, §4

[7] = test system: Klebs. spec. 1082E (K-1); assay: as above; assay type: cell-based
Excerpt: as §1, §2, §3, §4

[8] = test system: E. coli DC 2; assay: as above; assay type: cell-based; conditions: Escherichia coli, DC2
Excerpt: as §1, §2, §3, §4

[9] = test system: E. coli 1507 E; assay: as above; assay type: cell-based; conditions: Escherichia coli, read-out: Minimal inhibitory concentration
Excerpt: as §1, §2, §3, §4

[10] = test system: E. coli TEM; assay: as above; assay type: cell-based; conditions: Escherichia coli, read-out: Minimal inhibitory concentration
Excerpt: as §1, §2, §3, §4

[11] = test system: Klebs. spec. 1522 E; assay: as above; assay type: cell-based; conditions: read-out: Minimal inhibitory concentration
Excerpt: as §1, §2, §3, §4

[12] = test system: Pseud. aeruginosa 1771; assay: as above; assay type: cell-based; conditions: Pseudomonas aeruginosa
Excerpt: as §1, §2, §3, §4

[13] = test system: Strept. faecium D; assay: as above; assay type: cell-based; conditions: Enterococcus faecium
Excerpt: as §1, §2, §3, §4

[14] = test system: Staph. aureus 503; assay: as above; assay type: cell-based; conditions: Staphylococcus aureus
Excerpt: as §1, §2, §3, §4

[15] = test system: Strept. pyogenes 77 A; assay: as above; assay type: cell-based; conditions: Streptococcus pyogenes
Excerpt: as §1, §2, §3, §4

[16] = test system: Saim. typhimurium; assay: as above; assay type: cell-based
Excerpt: as §1, §2, §3, §4

[17] = test system: Staph. aureus SG 511; assay: as above; assay type: cell-based; conditions: Staphylococcus aureus, SG511
Excerpt: as §1, §2, §3, §4

[18] = test system: E. coli DC 0; assay: as above; assay type: cell-based; conditions: Escherichia coli, DC0
Excerpt: as §1, §2, §3, §4

[19] = test system: Staph. aureus 285; assay: as above; assay type: cell-based; conditions: Staphylococcus aureus
Excerpt: as §1, §2, §3, §4

[20] = test system: Enterobact. cloacae P 99; assay: as above; assay type: cell-based; conditions: read-out: Minimal inhibitory concentration
Excerpt: as §1, §2, §3, §4

[21] = test system: gram-positive and gram-negative bacteria; assay: Antibacterial activity (general statement); assay type: cell-based; conditions: in words
[22] = Cytotoxic / cytostatic activity (general statement); conditions: in words

Row | Structure (SMILES) | MIC [1] [µg/mL] | MIC [2] [µg/mL] | MIC [3] [µg/mL] | MIC [4] [µg/mL] | MIC [5] [µg/mL] | MIC [6] [µg/mL] | MIC [7] [µg/mL] | MIC [8] [µg/mL] | MIC [10] [µg/mL] | MIC [12] [µg/mL] | MIC [13] [µg/mL] | MIC [14] [µg/mL] | MIC [15] [µg/mL] | MIC [16] [µg/mL] | MIC [17] [µg/mL] | MIC [18] [µg/mL] | MIC [19] [µg/mL] | MIC [20] [µg/mL] | antibacterial / antibiotic activity [21] | cytotoxic activity / cytostatic effect [22] | further results
1 | COc1c(C)c(O)c2c(c1O)C(CO)[N+]1=CC3CC4C(C1C2N1CCOC41)N3C (centres unmarked) [Compound 31668P] | 0.049 | 0.391 | 0.781 | 0.098 | 0.781 | < 0.002 | 0.391 | 0.195 | 0.195 | 1.56 | 0.025 | < 0.002 | < 0.002 | 0.391 | < 0.002 | 0.781 | < 0.002 | 0.195 | active against a large number of both gram-positive and gram-negative bacteria; also recorded: have an antibiotic activity | cytotoxic activity; also recorded: cytostatic effect | MIC ([9]; 1507E): 0.195 µg/mL; MIC ([11]; Klebs. spec. 1522 E): 0.391 µg/mL
2 | COC1=C(C)C(=O)C2=C(C1=O)C(CO)[N+]1=CC3CC4C(C1C2N1CCOC41)N3C (centres unmarked) [Compound 31668U] | 0.195 | 1.56 | 6.25 | 0.195 | 6.25 | < 0.002 | 0.781 | 0.781 | 1.56 | 12.5 | 0.195 | < 0.002 | < 0.002 | 3.13 | < 0.002 | 6.25 | < 0.002 | 1.56 | active against a large number of both gram-positive and gram-negative bacteria; also recorded: have an antibiotic activity | cytotoxic activity; also recorded: cytostatic effect | MIC ([9]; E. coli 1507 E): 3.13 µg/mL; MIC [11]: 1.56 µg/mL
